In patent publication US9273057B2 (Bristol-Myers Squibb Company, priority 2012, dated 2016) one finds IC50 data, which are given here for 26 compounds.

CK2A1 (CK2α/β), sequence (P68400 whole entry, species assumed): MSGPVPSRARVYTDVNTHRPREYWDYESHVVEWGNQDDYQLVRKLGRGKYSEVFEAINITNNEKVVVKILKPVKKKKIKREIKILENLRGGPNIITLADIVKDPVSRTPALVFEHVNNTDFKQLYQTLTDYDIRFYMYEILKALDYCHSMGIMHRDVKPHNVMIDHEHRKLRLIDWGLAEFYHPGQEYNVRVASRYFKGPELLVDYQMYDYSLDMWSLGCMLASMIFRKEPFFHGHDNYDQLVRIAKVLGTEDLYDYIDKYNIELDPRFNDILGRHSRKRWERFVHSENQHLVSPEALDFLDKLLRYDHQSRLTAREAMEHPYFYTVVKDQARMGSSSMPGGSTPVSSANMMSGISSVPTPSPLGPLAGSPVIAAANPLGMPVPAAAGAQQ
CK2A1 (CK2α/β), sequence (P67870 whole entry partner, species assumed): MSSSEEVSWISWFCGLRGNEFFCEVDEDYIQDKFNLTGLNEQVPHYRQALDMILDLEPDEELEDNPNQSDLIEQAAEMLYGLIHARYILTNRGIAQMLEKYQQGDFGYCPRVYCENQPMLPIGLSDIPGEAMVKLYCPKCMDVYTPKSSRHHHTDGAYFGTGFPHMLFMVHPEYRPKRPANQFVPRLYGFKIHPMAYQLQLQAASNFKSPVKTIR

This experiment concerns the target CK2A1 (CK2α/β) (Homo sapiens, UniProt P68400). As to the kind of experiment: CK2 kinase assay, CK2A1 (CK2α/β). The note with it: Table A; read-out: CK2A1 (CK2α/β) (IC50). It counts as biochemical.
As to `COCCOC(=O)N1CCC(N2CCN(c3cc(C#N)cc(Nc4nc(NC5CC5)c5ncc(C#N)n5n4)c3Cl)CC2)C1` (centres unmarked) [Example 579, 2-methoxyethyl 3-[4-(2-chloro-5-cyano-3-{[7-cyano-4-(cyclopropylamino)imidazo[2,1-f][1,2,4]triazin-2-yl]amino}phenyl)piperazin-1-yl]pyrrolidine-1-carboxylate], the IC50 came to 4.1 nM.

On to `N#Cc1cc(Nc2nc(NC3CC3)c3ncc(C#N)n3n2)c(Cl)c(N2CCN(CC3(O)COC3)CC2)c1` [Example 580, 2-[(2-chloro-5-cyano-3-{4-[(3-hydroxyoxetan-3-yl)methyl]piperazin-1-yl}phenyl)amino]-4-(cyclopropylamino)imidazo [2,1-f][1,2,4]triazine-7-carbonitrile], for which the IC50 came to 3.2 nM.

Turning to `N#Cc1cc(Nc2nc(NC3CC3)c3ncc(C#N)n3n2)c(Cl)c(N2CCN(C3CCNC3=O)CC2)c1` (centres unmarked) [Example 581, 2-({2-chloro-5-cyano-3-[4-(2-oxopyrrolidin-3-yl)piperazin-1-yl]phenyl}amino)-4-(cyclopropylamino)imidazo [2,1-f][1,2,4]triazine-7-carbonitrile], the IC50 was 3.59 nM.

Regarding `N#Cc1cc(Nc2nc(NC3CC3)c3ncc(C#N)n3n2)c(Cl)c(N2CCN(C3CCS(=O)(=O)C3)CC2)c1` (centres unmarked) [Example 582, 2-({2-chloro-5-cyano-3-[4-(1,1-dioxo-1λ^6-thiolan-3-yl)piperazin-1-yl]phenyl}amino)-4-(cyclopropylamino)imidazo [2,1-f][1,2,4]triazine-7-carbonitrile], the IC50 stood at 5.9 nM.

As for `CCNc1nc(Nc2cc(C#N)cc(N3CCN(C4CN(C)C4)CC3)c2Cl)nn2c(C#N)cnc12` [Example 583, 2-({2-chloro-5-cyano-3-[4-(1-methylazetidin-3-yl)piperazin-1-yl]phenyl}amino)-4-(ethylamino)imidazo [2,1-f][1,2,4]triazine-7-carbonitrile], the IC50 amounted to 2.9 nM.

With `N#Cc1cc(Nc2nc(NC3CC3)c3ncc(C#N)n3n2)c(Cl)c(N2CCN(C(=O)CN3CCC3)CC2)c1` [Example 584, 2-[(3-{4-[2-(azetidin-1-yl)acetyl]piperazin-1-yl}-2-chloro-5-cyanophenyl)amino]-4-(cyclopropylamino)imidazo [2,1-f][1,2,4]triazine-7-carbonitrile], the IC50 worked out at 1.54 nM.

In the case of `COC1CN(CC(=O)N2CCN(c3cc(C#N)cc(Nc4nc(NC5CC5)c5ncc(C#N)n5n4)c3Cl)CC2)C1` [Example 585, 2-[(2-chloro-5-cyano-3-{4-[2-(3-methoxyazetidin-1-yl)acetyl]piperazin-1-yl}phenyl)amino]-4-(cyclopropylamino)imidazo [2,1-f][1,2,4]triazine-7-carbonitrile], the IC50 worked out at 3.28 nM.

Turning to `CCNc1nc(Nc2cc(C#N)cc(N3CCN(C4CN(CC(O)CF)C4)CC3)c2Cl)nn2c(C#N)cnc12` (centres unmarked) [Example 586, 2-[(2-chloro-5-cyano-3-{4-[1-(3-fluoro-2-hydroxypropyl)azetidin-3-yl]piperazin-1-yl}phenyl)amino]-4-(ethylamino)imidazo[2,1-f][1,2,4]triazine-7-carbonitrile], the IC50 came to 1.58 nM.

Regarding `N#Cc1cc(Nc2nc(NC3CC3)c3ncc(C#N)n3n2)c(Cl)c(N2CCN(C3CCCC3F)CC2)c1` (centres unmarked) [Example 587, 2-({2-chloro-5-cyano-3-[4-(2-fluorocyclopentyl)piperazin-1-yl]phenyl}amino)-4-(cyclopropylamino)imidazo [2,1-f][1,2,4]triazine-7-carbonitrile], the IC50 turned out to be 8.02 nM.

Regarding `C[C@@H](O)CN1CC(N2CCN(c3cc(C#N)cc(Nc4nc(NC5CC5)c5ncc(C#N)n5n4)c3Cl)CC2)C1` [Example 588, 2-{[2-chloro-5-cyano-3-(4-{1-[(2R)-2-hydroxypropyl]azetidin-3-yl}piperazin-1-yl)phenyl]amino}-4-(cyclopropylamino)imidazo [2,1-f][1,2,4]triazine-7-carbonitrile], the IC50 was found to be 3.08 nM.

Take `N#Cc1cc(Nc2nc(NC3CC3)c3ncc(C#N)n3n2)c(Cl)c(N2CCN([C@H]3CCC[C@@H]3O)CC2)c1` [Example 589, 2-[(2-chloro-5-cyano-3-{4-[(1S,2S)-2-hydroxycyclopentyl]piperazin-1-yl}phenyl)amino]-4-(cyclopropylamino)imidazo [2,1-f][1,2,4]triazine-7-carbonitrile]: the IC50 came to 7.56 nM.

With `N#Cc1cc(Nc2nc(NC3CC3)c3ncc(C#N)n3n2)c(Cl)c(N2CCN(CCO)CC2)c1` [Example 590, 2-({2-chloro-5-cyano-3-[4-(2-hydroxyethyl)piperazin-1-yl]phenyl}amino)-4-(cyclopropylamino)imidazo [2,1-f][1,2,4]triazine-7-carbonitrile], the IC50 was found to be 1.83 nM.

`COC(=O)N1CCC(N2CCN(c3cc(C#N)cc(Nc4nc(NC5CC5)c5ncc(C#N)n5n4)c3Cl)CC2)C1` (centres unmarked) [Example 591, methyl 3-[4-(2-chloro-5-cyano-3-{[7-cyano-4-(cyclopropylamino)imidazo [2,1-f][1,2,4]triazine-2-yl]amino}phenyl)piperazin-1-yl]pyrrolidine-1-carboxylate]: the IC50 was 3.82 nM.

As for `CN1CC(OC(=O)N2CCN(c3cc(C#N)cc(Nc4nc(NC5CC5)c5ncc(C#N)n5n4)c3Cl)CC2)C1` [Example 592, 1-methylazetidin-3-yl 4-(2-chloro-5-cyano-3-{[7-cyano-4-(cyclopropylamino)imidazo [2,1-f][1,2,4]triazin-2-yl]amino}phenyl) piperazine-1-carboxylate], the IC50 was 0.44 nM.

`N#Cc1cc(Nc2nc(NC3CC3)c3ncc(C#N)n3n2)c(Cl)c(N2CCN(C3CC3)CC2)c1` [Example 593, 2-{[2-chloro-5-cyano-3-(4-cyclopropylpiperazin-1-yl)phenyl]amino}-4-(cyclopropylamino)imidazo [2,1-f][1,2,4]triazine-7-carbonitrile]: the IC50 is 1.35 nM.

Turning to `N#Cc1cc(Nc2nc(NC3CC3)c3ncc(C#N)n3n2)c(Cl)c(N2CCN(CCC(F)F)CC2)c1` [Example 595, 2-({2-chloro-5-cyano-3-[4-(3,3-difluoropropyl)piperazin-1-yl]phenyl}amino)-4-(cyclopropylamino)imidazo [2,1-f][1,2,4]triazine-7-carbonitrile], the IC50 worked out at 1.44 nM.

For the compound `COC(C)CN1CCN(c2cc(C#N)cc(Nc3nc(NC4CC4)c4ncc(C#N)n4n3)c2Cl)CC1` (centres unmarked) [Example 596, 2-({2-chloro-5-cyano-3-[4-(2-methoxypropyl)piperazin-1-yl]phenyl}amino)-4-(cyclopropylamino)imidazo [2,1-f][1,2,4]triazine-7-carbonitrile], the IC50 is 0.6 nM.

As for `N#Cc1cc(Nc2nc(NC3CC3)c3ncc(C#N)n3n2)c(Cl)c(N2CCN(CC3CNCCO3)CC2)c1` (centres unmarked) [Example 597, 2-({2-chloro-5-cyano-3-[4-(morpholin-2-ylmethyl)piperazin-1-yl]phenyl}amino)-4-(cyclopropylamino)imidazo [2,1-f][1,2,4]triazine-7-carbonitrile], the IC50 was 0.62 nM.

Take `N#Cc1cc(Nc2nc(NC3CC3)c3ncc(C#N)n3n2)c(Cl)c(N2CCN(CC3COCCN3)CC2)c1` (centres unmarked) [Example 598, 2-({2-chloro-5-cyano-3-[4-(morpholin-3-ylmethyl)piperazin-1-yl]phenyl}amino)-4-(cyclopropylamino)imidazo [2,1-f][1,2,4]triazine-7-carbonitrile]: the IC50 was 0.51 nM.

On to `N#Cc1cc(Nc2nc(NC3CC3)c3ncc(C#N)n3n2)c(Cl)c(N2CCN(CC(=O)NS(=O)(=O)C3CC3)CC2)c1` [Example 599, 2-[4-(2-chloro-5-cyano-3-{[7-cyano-4-(cyclopropylamino)imidazo [2,1-f][1,2,4]triazin-2-yl]amino}phenyl)piperazin-1-yl]-N-(cyclopropanesulfonyl) acetamide], for which the IC50 is 0.4 nM.

For the compound `N#Cc1cc(Nc2nc(NC3CC3)c3ncc(C#N)n3n2)c(Cl)c(N2CCN(CC(N)=O)CC2)c1` [Example 600, 2-[4-(2-chloro-5-cyano-3-{[7-cyano-4-(cyclopropylamino)imidazo[2,1-f][1,2,4]triazin-2-yl]amino}phenyl)piperazin-1-yl]acetamide], the IC50 is 0.53 nM.

For the compound `N#Cc1cc(Nc2nc(NC3CC3)c3ncc(C#N)n3n2)c(Cl)c(N2CCN([C@H]3C[C@H](F)C3)CC2)c1` [Example 601, 2-[(2-chloro-5-cyano-3-{4-[(1r,3r)-3-fluorocyclobutyl]piperazin-1-yl}phenyl)amino]-4-(cyclopropylamino)imidazo [2,1-f][1,2,4]triazine-7-carbonitrile], the IC50 came to 1.41 nM.

Consider `COC[C@@H](O)CN1CCN(c2cc(C#N)cc(Nc3nc(NC4CC4)c4ncc(C#N)n4n3)c2Cl)CC1` [Example 602, 2-[(2-chloro-5-cyano-3-{4-[(2S)-2-hydroxy-3-methoxypropyl]piperazin-1-yl}phenyl)amino]-4-(cyclopropylamino)imidazo [2,1-f][1,2,4]triazine-7-carbonitrile], for which the IC50 worked out at 4.34 nM.

As for `CCNc1nc(Nc2cc(C#N)cc(N3CCN(CC4(C)COC4)CC3)c2Cl)nn2c(C#N)cnc12` [Example 603, 2-[(2-chloro-5-cyano-3-{4-[(3-methyloxetan-3-yl)methyl]piperazin-1-yl}phenyl)amino]-4-(ethylamino)imidazo[2,1-f] [1,2,4]triazine-7-carbonitrile], the IC50 is 2.85 nM.

Take `CCNc1nc(Nc2cc(C#N)cc(N3CCN(CC(C)(CO)CO)CC3)c2Cl)nn2c(C#N)cnc12` [Example 604, 2-[(2-chloro-5-cyano-3-{4-[3-hydroxy-2-(hydroxymethyl)-2-methylpropyl]piperazin-1-yl}phenyl)amino]-4-(ethylamino)imidazo[2,1-f][1,2,4]triazine-7-carbonitrile]: the IC50 was determined as 0.99 nM.

With `CCNc1nc(Nc2cc(C#N)cc(N3CCN(C4CN(C(C)=O)C4)CC3)c2Cl)nn2c(C#N)cnc12` [Example 605, 2-({3-[4-(1-acetylazetidin-3-yl)piperazin-1-yl]-2-chloro-5-cyanophenyl}amino)-4-(ethylamino)imidazo[2,1-f][1,2,4]triazine-7-carbonitrile], the IC50 worked out at 0.91 nM.
